Where a SMILES comes first, the peptide text is derived from it. The star is where a group is joined. Cbz = O=C(OCc1ccccc1)*
Experiments:
TRIB3 and MYC = experiment: SPR kinetic interaction of TRIB3 and MYC proteins with or without CM4; type: binding; settings: in vitro, result in words
Description: (§1) Binding kinetics between MYC and UBE3B, TRIB3 and the indicated α helical peptides, MAX and the indicated α helical peptides, or MYC and MAX were analyzed using a BIAcore T200 instrument (GE Healthcare, CA, USA) as described previously. Briefly, binding reactions were performed in HBS-EP buffer (GE Healthcare) at pH 7.4. TRIB3/MYC/MAX protein was coated on the flow cell of a CM5 sensor chip by direct immobilization. Another flow cell, not coated with an immobilized protein, was used to evaluate nonspecific binding. The binding analyses were performed at a flow rate of 25 μl/min at 25 °C. A total of 0–200 nM peptide or 0–500 nM TRIB3 protein was passed over the surface of the sensor chip. The association rate constant (Ka) and the dissociation rate constant (Kd) were calculated according to the BIA evaluation software. The dissociation constant (KD) was determined by Kd/Ka.

TRIB3 protein = molecular target: T1, TRIB3 protein (Homo sapiens, UniProt Q96RU7); experiment: SPR kinetic interaction of α-helical peptides (CM1-CM4) with TRIB3; type: binding; settings: result in words
T1 construct: GST; purchased Sinobiological Inc. 10731-H09B
T1 sequence (Q96RU7 1-358): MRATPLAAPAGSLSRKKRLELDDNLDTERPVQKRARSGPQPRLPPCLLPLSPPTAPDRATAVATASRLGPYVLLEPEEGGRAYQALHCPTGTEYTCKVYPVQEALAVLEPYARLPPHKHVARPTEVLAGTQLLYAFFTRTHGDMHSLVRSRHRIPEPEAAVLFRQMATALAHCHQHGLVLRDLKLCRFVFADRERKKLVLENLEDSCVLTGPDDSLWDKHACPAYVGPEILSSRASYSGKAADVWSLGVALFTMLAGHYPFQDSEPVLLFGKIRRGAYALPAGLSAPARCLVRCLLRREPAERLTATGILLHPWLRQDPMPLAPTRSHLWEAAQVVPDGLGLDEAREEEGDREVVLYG
Description: as §1

MAX protein = experiment: SPR kinetic interaction of α-helical peptides (CM1-CM4) with MAX; type: binding; settings: result in words
Description: as §1

MAX and MYC = experiment: SPR kinetic interaction of MAX and MYC proteins with indicated peptides (CM1-CM4); type: binding; settings: result in words
Description: as §1

[1] = system: Myc^EμCre^ERT2Trib3^F/+ mice; experiment: Survival of Myc^EμCre^ERT2Trib3^F/+ mice treated with vehicle or tamoxifen (induced Trib3 deletion); type: in vivo, mouse
Text: NOD-scid IL2Rg^null (NSG) mice (4–6 weeks old, male) were purchased from the Nanjing Biomedical Research Institute of Nanjing University (Nanjing, China). Trib3-knockout (Trib3^loxP/loxP, Trib3^F/F) mice (5–6 weeks old, male) were generated as described in our previous study (Li et al.[18]). Cre^ERT2 (B6. Cg-Tg(CAG-cre/Esr1*)5Amc/J) mice (5–6 weeks old, 1 male and 2 females) (The Jackson Laboratory, 004682) were obtained from The Jackson Laboratory (CA, USA). When Cre^ERT2 transgenic mice bred with mice containing loxP-flanked sequences, tamoxifen-inducible Cre-mediated recombination results in deletion of the floxed sequences in widespread cells/tissues of the offspring. Cre^Lck (B6. Cg-Tg(Lck-cre)548Jxm/J) mice (5–6 weeks old, 1 male and 2 females; The Jackson Laboratory, 003802), and Cre^CD19 (B6.129P2(C)-Cd19tm1(cre)Cgn/J) mice (5–6 weeks old, 1 male and 2 females; The Jackson Laboratory, 006785) were obtained from the Shanghai Research Center for Model Organisms (Shanghai, China). B6.129P2-Lyz2tm1(cre)/Nju (LysM-Cre) mice(5–6 weeks old, 1 male and 2 females; N000056) were obtained from Model Animal Resource Information Platform. […] Deletion of Trib3 was corroborated by quantitative PCR and immunoblot analysis. […]

MYC ubiquitination = experiment: UBE3B-mediated MYC ubiquitination in HEK 293T cells with GSK3 inhibitor; type: cell-based; settings: GSK3 inhibitor 10 µM for 12 hr, Co-IP, result in words
Description: HEK 293T cells were cotransfected with Myc-tagged MYC, HA-tagged or Flag-tagged ubiquitin, and other indicated plasmids. Cells were pretreated for 6 h with MG132 (Sigma Aldrich, C2211) at a concentration of 20 μM, and cell extracts were prepared using lysis buffer containing 1% TX-100 supplemented with 1 mg/ml iodoacetamide. We used a monoclonal anti-HA Affinity Gel (Bimake.com, B23302) or a ubiquitin antibody (CST, #3933S, 5 μg/IP) to purify ubiquitinylated proteins. Precipitates were analyzed by immunoblot with an anti-MYC antibody (CST, #9402 S, 1:1000).
Suppleme n t a ry F i g ur e 4 . U B E3 B I n d uc e d MYC Ubiquitina tion a t Lys ine 4 27 . Re la te d to Fig. 3 . […]
(d) The direct interaction of UBE3B and MYC in the purified system. […] HEK 293T cells were transfected with th e indicated mutants of MYC, and the ubiquitination of MYC was detected by Co -IP assays. […] HEK 293T cells were transfected with the indicated mutants of MYC, and the ubiquitination of MYC was detected by Co-IP assays. […] HEK 293T cells were transfected with the indicated mutants of MYC, and the degradation of MYC was detected by western blotting. […]
Raji cells were transfected with the indicated siRNAs and plasmids, and the ubiquitination of MYC was detected by Co-IP assays. […] Th e MY C protein was detected by Western blot analysis with GAPDH as a loading control. […] The MYC ubiquitination was detected by Co-IP assays . […]

[2] = system: MYC protein in Raji cells; experiment: MYC degradation in control or TRIB3-deleted Raji cells with CHX or CHX plus MG132; type: cell-based, human; settings: result in words
Description: Co-IP experiments were performed as described previously. Briefly, cells were collected and lysed for 30 min on ice. Soluble lysates were incubated with the indicated antibodies at 4 °C overnight, followed by incubation with Protein A/G Plus-Agarose (Santa Cruz Biotechnology, TX, USA) at 4 °C for 2 h. Soluble lysates were incubated with the indicated Anti-Myc magnetic beads (Bimake.com, B26302), Anti-Flag Affinity Gel (Bimake.com, B23102) or Anti-HA Affinity Gel (Bimake.com, B23302) at 4 °C overnight. Immunocomplexes were separated from the beads and then boiled for 10 min. The precipitated proteins were subjected to SDS-PAGE and blotted with specific antibodies. For immunoblotting assays, proteins were extracted from cells, spleens, or lymphoma tissues using RIPA buffer (Cell Signaling Technology, MA, USA). A BCA Protein Assay Kit was used to determine protein concentrations. Protein extracts were separated by SDS-PAGE, transferred onto PVDF membranes, and subjected to immunoblot analysis. Western blot images were captured by a Tanon 5200 chemiluminescent imaging system (Tanon, Shanghai, […]). Human lymphoma and benign LN paraffin tissue microarrays were purchased from US Biomax (LM482a).

| Compound | binding affinity for TRIB3 (TRIB3 protein) | ability to bind MAX (MAX protein) | effect on the binding of MYC and MAX (MAX and MYC) | also measured |
| --- | --- | --- | --- | --- |
| LRKERQRLEKQLHK [scramble peptide of CM4, reference compound] |  |  |  | effect on the binding affinity of TRIB3 and MYC (TRIB3 and MYC): not |
| QAEEQKLISEEDLLR [CM3, α-helical peptide derived from C terminus of MYC] | only CM4 displayed a high binding affinity | not | not |  |
| CC/C(=C(\c1ccccc1)c1ccc(OCCN(C)C)cc1)c1ccccc1 [Tamoxifen, tamoxifen] |  |  |  | survival of lymphoma mice ([1]; tamoxifen 250 mg/kg i.p. (induces Trib3 deletion), result in words): none of the tamoxifen-treated Myc^Eμ Cre^ERT2Trib3^F/+ mice died within 180 days; Survival status at day 180 (0: alive, 1: dead) ([1]; tamoxifen 250 mg/kg, status of individual mice at Day 180, Fig 1k source data): 0 |
| Cc1c[nH]c(-c2cnc(NCCNc3ccc(C#N)cn3)nc2-c2ccc(Cl)cc2Cl)n1 [CT99021] |  |  |  | UBE3B-mediated MYC ubiquitination (MYC ubiquitination): decreased |
| CC(C)C[C@@H](C=O)NC(=O)[C@H](CC(C)C)NC(=O)[C@H](CC(C)C)NC(=O)OCc1ccccc1 [MG132] (Cbz-Leu-Leu-Leu-aldehyde) |  |  |  | effect on the shortened MYC half-life induced by TRIB3 knockdown [2]: reversed |
| ERQRRNELKRSFFALR [CM1, α-helical peptide derived from C terminus (HLH domain) of MYC] | only CM4 displayed a high binding affinity | showed a high ability to bind MAX | decreased the binding of MYC and MAX |  |
| KVVILKKATAYILSV [CM2, α-helical peptide derived from C terminus of MYC] | only CM4 displayed a high binding affinity | not | not |  |
